Measurements: ChEMBL document CHEMBL1156829 (Proc Natl Acad Sci U S A, 2008)

Key:
Plasmodium falciparum [1] = assay: NOVARTIS: Inhibition of Plasmodium falciparum 3D7 (drug-susceptible) proliferation in erythrocyte-based infection assay; assay type: functional, organism-based; conditions: Plasmodium falciparum, 3D7
Plasmodium falciparum [2] = assay: NOVARTIS: Inhibition of Plasmodium falciparum W2 (drug-resistant) proliferation in erythrocyte-based infection assay; assay type: functional, organism-based; conditions: Plasmodium falciparum, W2; read-out: EC50
[3] = NOVARTIS: Cytotoxicity against human hepatocellular carcinoma cell line (Huh7); assay type: toxicity, cell-based, Huh-7; conditions: Huh7 cells (hepatocellular carcinoma cell line)

## Cc1cc(NCCN2CCCCC2)c2ccc3ccccc3c2n1
Plasmodium falciparum [1]
  EC50: 44.1 nM
Plasmodium falciparum [2]
  EC50: 81 nM
[3]
  CC50: 15600 nM

## Cc1nc2ccccc2c(O)c1CC=C(Cl)Cl
Plasmodium falciparum [1]
  EC50: 498 nM
Plasmodium falciparum [2]
  EC50: 514 nM
[3]
  CC50: > 100000 nM

## CCOC(=O)C1=C(C)NC2=C(C(=O)C(C(=O)OCC)C(c3cccc(OC)c3)C2)C1c1cc(OC)c(OC)c(OC)c1 (stereo not given)
Plasmodium falciparum [1]
  EC50: 1090 nM
Plasmodium falciparum [2]
  EC50: 494 nM
[3]
  CC50: > 100000 nM

## CC(C)N(C)Cc1cc(-c2nc3ccccc3s2)ccc1O
Plasmodium falciparum [1]
  EC50: 7870 nM
Plasmodium falciparum [2]
  EC50: 509 nM
[3]
  CC50: > 100000 nM

## CCCCCCCn1c(=N)n(CC(O)c2ccc(Cl)c(Cl)c2)c2ccccc21 (stereo not given)
Plasmodium falciparum [1]
  EC50: 204 nM
Plasmodium falciparum [2]
  EC50: 33.5 nM
[3]
  CC50: 6500 nM

## COc1cccc(NC(=O)c2ccc(NCCCN3CC(C)CC(C)C3)c([N+](=O)[O-])c2)c1 (stereo not given)
Plasmodium falciparum [1]
  EC50: 275 nM
Plasmodium falciparum [2]
  EC50: 509 nM
[3]
  CC50: > 100000 nM

## CCCCCCCCn1c(C)[n+](CC)c2cc(C(=O)OCC)ccc21
Plasmodium falciparum [1]
  EC50: 686 nM
Plasmodium falciparum [2]
  EC50: 504 nM
[3]
  CC50: > 100000 nM

## O=C(c1ccc2nc(N3CCCCC3)sc2c1)N1CCN(Cc2ccccc2)CC1
Plasmodium falciparum [1]
  EC50: 907 nM
Plasmodium falciparum [2]
  EC50: 503 nM
[3]
  CC50: > 100000 nM

## COc1ccccc1-n1c(C(C)N(C)C(=O)Nc2ccccc2F)nc2ccccc2c1=O (stereo not given)
Plasmodium falciparum [1]
  EC50: 162 nM
Plasmodium falciparum [2]
  EC50: 62.3 nM
[3]
  CC50: > 12400 nM

## O=C1Nc2ccccc2C12Nc1ccccc1-c1nc3ccccc3n12 (stereo not given)
Plasmodium falciparum [1]
  EC50: 1090 nM
Plasmodium falciparum [2]
  EC50: 502 nM
[3]
  CC50: > 100000 nM

## Cc1cc2c(cc1S(=O)(=O)N1CCCCC1C)OCC(=O)N2 (stereo not given)
Plasmodium falciparum [1]
  EC50: > 12500 nM
Plasmodium falciparum [2]
  EC50: 505 nM
[3]
  CC50: > 100000 nM

## CCC1CCCCN1CCCNC(=O)c1cn(CC)c(=O)c2cc(OC)c(OC)cc12 (stereo not given)
Plasmodium falciparum [1]
  EC50: 449 nM
Plasmodium falciparum [2]
  EC50: 505 nM
[3]
  CC50: > 100000 nM

## CC1=C(C(=O)Nc2ccc(C)cc2C)C(c2ccc([N+](=O)[O-])cc2)n2ncc(C(=O)Nc3ccc(F)cc3)c2N1 (stereo not given)
Plasmodium falciparum [1]
  EC50: 585 nM
Plasmodium falciparum [2]
  EC50: 514 nM
[3]
  CC50: > 100000 nM

## Cc1cc(C)cc(NC(=S)NCCO)c1
Plasmodium falciparum [1]
  EC50: 3860 nM
Plasmodium falciparum [2]
  EC50: 513 nM
[3]
  CC50: > 100000 nM

## COc1ccc(C(=O)C[n+]2ccc3c(c2)nc(-c2ccc(OC)cc2OC)n3C)cc1
Plasmodium falciparum [1]
  EC50: 920 nM
Plasmodium falciparum [2]
  EC50: 512 nM
[3]
  CC50: > 100000 nM

## CN(CCCNc1ccnc2cc(Cl)ccc12)C(=O)c1ccc(Br)cc1
Plasmodium falciparum [1]
  EC50: 688 nM
Plasmodium falciparum [2]
  EC50: 13.4 nM
[3]
  CC50: 2610 nM

## COc1ccccc1NC1=C(N2CCCCC2)C(=O)c2ccccc2C1=O
Plasmodium falciparum [1]
  EC50: 28 nM
Plasmodium falciparum [2]
  EC50: 40.1 nM
[3]
  CC50: 7870 nM

## Oc1c(C(Nc2ccccn2)c2cccc(Oc3ccccc3)c2)ccc2cccnc12 (stereo not given)
Plasmodium falciparum [1]
  EC50: 328 nM
Plasmodium falciparum [2]
  EC50: 320 nM
[3]
  CC50: 62800 nM

## C=C[C@H]1CN2CC[C@H]1C[C@@H]2[C@@H](OC(=O)Cc1ccccc1)c1ccnc2ccccc12
Plasmodium falciparum [1]
  EC50: 49.4 nM
Plasmodium falciparum [2]
  EC50: 51.7 nM
[3]
  CC50: > 10000 nM

## O=C(C1CCC1)N1CCOc2c(cc(-c3csc4ccccc34)cc2OCCc2ccccn2)C1
Plasmodium falciparum [1]
  EC50: 754 nM
Plasmodium falciparum [2]
  EC50: 515 nM
[3]
  CC50: > 99600 nM

## O=[N+]([O-])c1cc(Cl)c(N2CCOCC2)cc1N1CCOCC1
Plasmodium falciparum [1]
  EC50: 1040 nM
Plasmodium falciparum [2]
  EC50: 515 nM
[3]
  CC50: > 100000 nM

## CN(C)CC(O)Cn1c2ccccc2c2ccccc21 (stereo not given)
Plasmodium falciparum [1]
  EC50: > 11700 nM
Plasmodium falciparum [2]
  EC50: 275 nM
[3]
  CC50: 52800 nM

## O=C1C=C(Nc2cccc(C(F)(F)F)c2)C(=O)c2ccccc21
Plasmodium falciparum [1]
  EC50: 549 nM
Plasmodium falciparum [2]
  EC50: 519 nM
[3]
  CC50: > 100000 nM

## c1cc(C2=NCCN2)ccc1OCCCOc1ccc(C2=NCCN2)cc1
Plasmodium falciparum [1]
  EC50: 5.58 nM
Plasmodium falciparum [2]
  EC50: 51.8 nM
[3]
  CC50: > 10000 nM

## CCOC(=O)c1ccc2nc(-c3ccccc3)cc(O)c2c1
Plasmodium falciparum [1]
  EC50: 549 nM
Plasmodium falciparum [2]
  EC50: 493 nM
[3]
  CC50: > 100000 nM

## O=C(C(Cc1c[nH]c2ccccc12)NS(=O)(=O)c1ccc(Cl)cc1)N1CCCCC1 (stereo not given)
Plasmodium falciparum [1]
  EC50: 719 nM
Plasmodium falciparum [2]
  EC50: 488 nM
[3]
  CC50: > 100000 nM

## Clc1ccc2[nH]c3c(NCCCN4CCOCC4)ncnc3c2c1
Plasmodium falciparum [1]
  EC50: 109 nM
Plasmodium falciparum [2]
  EC50: 152 nM
[3]
  CC50: 31200 nM

## N#Cc1c2c(c(NCc3ccccn3)n3c1nc1ccccc13)CCCC2
Plasmodium falciparum [1]
  EC50: 223 nM
Plasmodium falciparum [2]
  EC50: 522 nM
[3]
  CC50: > 100000 nM

## CN(C)[C@@H]1CCN(Cc2cccc(Cl)c2)C[C@@H]1CCC(=O)NCCCN1CCOCC1
Plasmodium falciparum [1]
  EC50: 593 nM
Plasmodium falciparum [2]
  EC50: < 15.4 nM
[3]
  CC50: > 2940 nM

## CCOC(=O)COc1ccc(C2NC(=S)NC(C)=C2C(C)=O)cc1OC (stereo not given)
Plasmodium falciparum [1]
  EC50: 4030 nM
Plasmodium falciparum [2]
  EC50: 496 nM
[3]
  CC50: > 100000 nM

## Cc1cc(C)n(-c2ccc(NC(=O)C3CCN(Cc4ccc5nonc5c4)CC3)cc2)n1
Plasmodium falciparum [1]
  EC50: 430 nM
Plasmodium falciparum [2]
  EC50: 412 nM
[3]
  CC50: > 83200 nM

## CSc1nnc(-c2cccc([N+](=O)[O-])c2)n1Cc1ccccc1
Plasmodium falciparum [1]
  EC50: 652 nM
Plasmodium falciparum [2]
  EC50: 495 nM
[3]
  CC50: > 100000 nM

## COc1ccc(C[n+]2cc(-c3ccc(Cl)cc3)n3ccccc32)cc1
Plasmodium falciparum [1]
  EC50: 413 nM
Plasmodium falciparum [2]
  EC50: 524 nM
[3]
  CC50: > 100000 nM

## COc1cccc(N2C(N)=NC(N)=NC2(C)C)c1
Plasmodium falciparum [1]
  EC50: 55.5 nM
Plasmodium falciparum [2]
  EC50: 498 nM
[3]
  CC50: > 100000 nM

## COc1ccc(C2c3[nH]c4ccccc4c3C[C@H]3C(=O)N(CCC(C)C)CC(=O)N23)cc1 (stereo not given in full)
Plasmodium falciparum [1]
  EC50: 3190 nM
Plasmodium falciparum [2]
  EC50: 497 nM
[3]
  CC50: > 100000 nM

## Cc1cccc(N2C(=O)C3C(C2=O)C2(c4ccccc4)C(=O)C3(c3ccccc3)C(c3ccc4c(c3)OCO4)=C2c2ccc3c(c2)OCO3)c1 (stereo not given)
Plasmodium falciparum [1]
  EC50: 1070 nM
Plasmodium falciparum [2]
  EC50: 508 nM
[3]
  CC50: > 100000 nM

## N#Cc1c2c(c(N3CCN(C4CCCCC4)CC3)n3c1nc1ccccc13)CCC2
Plasmodium falciparum [1]
  EC50: 183 nM
Plasmodium falciparum [2]
  EC50: 511 nM
[3]
  CC50: > 100000 nM

## CCN(CC)C(=O)COc1ccc(-c2nnc(N3CCCCC3)c3ccccc23)cc1
Plasmodium falciparum [1]
  EC50: 1740 nM
Plasmodium falciparum [2]
  EC50: 508 nM
[3]
  CC50: > 100000 nM

## CCOC(=O)C1CCN(C(=O)CN2C(=O)c3ccccc3C2c2c[nH]c3ccccc23)CC1 (stereo not given)
Plasmodium falciparum [1]
  EC50: 519 nM
Plasmodium falciparum [2]
  EC50: 513 nM
[3]
  CC50: > 100000 nM

## Cc1cnc(C)c(-c2ccc(O)c(CNCC3(N4CCCCC4)CCCCC3)c2)n1
Plasmodium falciparum [1]
  EC50: 326 nM
Plasmodium falciparum [2]
  EC50: 39.8 nM
[3]
  CC50: > 7780 nM

## CCCCOc1ccc(C(=O)Nc2cc(C)on2)cc1
Plasmodium falciparum [1]
  EC50: 3160 nM
Plasmodium falciparum [2]
  EC50: 510 nM
[3]
  CC50: > 100000 nM

## COc1cc(C(=O)NC2CC3CCC(C2)N3C2CC2)cc(OC)c1OC (stereo not given)
Plasmodium falciparum [1]
  EC50: 450 nM
Plasmodium falciparum [2]
  EC50: 487 nM
[3]
  CC50: > 100000 nM

## Cc1cc(Nc2ccc([N+](=O)[O-])cc2O)nc2ccccc12
Plasmodium falciparum [1]
  EC50: 357 nM
Plasmodium falciparum [2]
  EC50: 144 nM
[3]
  CC50: 28000 nM

## C=CCOc1ccc(C2C(C(=O)OCC)=C(C)N=c3sc(=Cc4ccccc4O)c(=O)n32)cc1OCC (stereo not given)
Plasmodium falciparum [1]
  EC50: 608 nM
Plasmodium falciparum [2]
  EC50: 263 nM
[3]
  CC50: 53300 nM

## O=c1[nH]n(CC2COC(c3ccccc3)O2)c(=O)c2ccccc12 (stereo not given)
Plasmodium falciparum [1]
  EC50: 678 nM
Plasmodium falciparum [2]
  EC50: 488 nM
[3]
  CC50: > 100000 nM

## CCOC(=O)c1cnc2ccccc2c1Nc1ccc(C(C)=O)cc1
Plasmodium falciparum [1]
  EC50: 343 nM
Plasmodium falciparum [2]
  EC50: 386 nM
[3]
  CC50: > 73800 nM

## CCS/C(Cl)=C(/NC(=O)c1ccccc1)[P+](c1ccccc1)(c1ccccc1)c1ccccc1
Plasmodium falciparum [1]
  EC50: 110 nM
Plasmodium falciparum [2]
  EC50: 52 nM
[3]
  CC50: > 10000 nM

## CC1=C(C(=O)OC2CCCC2)C(c2ccc(Cl)cc2)C2=C(CC(c3ccc(Cl)cc3)CC2=O)N1 (stereo not given)
Plasmodium falciparum [1]
  EC50: 2590 nM
Plasmodium falciparum [2]
  EC50: 487 nM
[3]
  CC50: > 100000 nM

## N#CC(=Cc1ccc(Sc2ccccc2)o1)c1nc2ccccc2[nH]1
Plasmodium falciparum [1]
  EC50: 1050 nM
Plasmodium falciparum [2]
  EC50: 501 nM
[3]
  CC50: > 100000 nM

## CN(CCCNc1ccnc2cc(Cl)ccc12)C(=O)c1ccc(C(F)(F)F)cc1
Plasmodium falciparum [1]
  EC50: 166 nM
Plasmodium falciparum [2]
  EC50: 319 nM
[3]
  CC50: 64600 nM
